Test results from PubChem BioAssay (NCI).
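48-hour exposure; five concentrations; linearly interpolated endpoints. TGI is the concentration that stops growth completely.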 Where a SMILES comes first, the peptide text is derived from it. [ ]: non-standard residue; d: D form. The star is where a group is joined. Phe(4-NO2) = N[CH](Cc1ccc([N+](=O)[O-])cc1)C(=O)O; Cbz = O=C(OCc1ccccc1)*

Experiments:
Assay in all cases: DTP human tumour cell line panel, 48 h
NCI-H460 lung = test system: NCI-H460 lung
OVCAR-8 ovarian = test system: OVCAR-8 ovarian
A549 NSCLC = test system: A549 NSCLC
MDA-MB-231 breast = test system: MDA-MB-231 breast
TK-10 renal = test system: TK-10 renal
UACC-257 melanoma = test system: UACC-257 melanoma
RXF 393 renal = test system: RXF 393 renal
HS 578T breast = test system: HS 578T breast
SK-MEL-2 melanoma = test system: SK-MEL-2 melanoma
HOP-62 NSCLC = test system: HOP-62 NSCLC
K-562 leukemia = test system: K-562 leukemia
SNB-75 CNS = test system: SNB-75 CNS
NCI/ADR-RES ovarian = test system: NCI/ADR-RES ovarian
HT29 colon = test system: HT29 colon
HOP-92 NSCLC = test system: HOP-92 NSCLC
MCF7 breast = test system: MCF7 breast
CAKI-1 renal = test system: CAKI-1 renal
SR leukemia = test system: SR leukemia
U251 CNS = test system: U251 CNS
HCT-116 colon = test system: HCT-116 colon
M14 melanoma = test system: M14 melanoma
SK-MEL-5 melanoma = test system: SK-MEL-5 melanoma
HCT-15 colon = test system: HCT-15 colon
SNB-19 CNS = test system: SNB-19 CNS
786-0 renal = test system: 786-0 renal
MDA-N = test system: MDA-N
CCRF-CEM leukemia = test system: CCRF-CEM leukemia
MALME-3M melanoma = test system: MALME-3M melanoma
A498 renal = test system: A498 renal
T-47D breast = test system: T-47D breast
PC-3 prostate = test system: PC-3 prostate
SK-OV-3 ovarian = test system: SK-OV-3 ovarian
SF-539 CNS = test system: SF-539 CNS
RPMI-8226 leukemia = test system: RPMI-8226 leukemia
SK-MEL-28 melanoma = test system: SK-MEL-28 melanoma
BT-549 breast = test system: BT-549 breast
NCI-H522 lung = test system: NCI-H522 lung
NCI-H23 lung = test system: NCI-H23 lung
MDA-MB-435 = test system: MDA-MB-435
ACHN renal = test system: ACHN renal
KM12 colon = test system: KM12 colon
HCC-2998 colon = test system: HCC-2998 colon
OVCAR-3 ovarian = test system: OVCAR-3 ovarian
SW-620 colon = test system: SW-620 colon
COLO 205 colon = test system: COLO 205 colon
HL-60(TB) leukemia = test system: HL-60(TB) leukemia
UACC-62 melanoma = test system: UACC-62 melanoma
EKVX NSCLC = test system: EKVX NSCLC
IGROV1 ovarian = test system: IGROV1 ovarian
SN12C renal = test system: SN12C renal
LOX IMVI melanoma = test system: LOX IMVI melanoma
OVCAR-5 ovarian = test system: OVCAR-5 ovarian
UO-31 renal = test system: UO-31 renal
SF-268 CNS = test system: SF-268 CNS
MOLT-4 leukemia = test system: MOLT-4 leukemia
OVCAR-4 ovarian = test system: OVCAR-4 ovarian
DU-145 prostate = test system: DU-145 prostate
NCI-H226 lung = test system: NCI-H226 lung

CSc1cc(Cl)c(C(=O)Nc2ccccc2)cc1S(=O)(=O)n1cc[nH]c1=O
TGI (NCI-H460 lung): > 100 µM | TGI (OVCAR-8 ovarian): > 100 µM | TGI (A549 NSCLC): > 100 µM | TGI (MDA-MB-231 breast): > 100 µM | TGI (TK-10 renal): > 100 µM | TGI (UACC-257 melanoma): > 100 µM | TGI (RXF 393 renal): > 100 µM | TGI (HS 578T breast): > 100 µM | TGI (SK-MEL-2 melanoma): > 100 µM | TGI (HOP-62 NSCLC): > 100 µM | TGI (K-562 leukemia): > 100 µM | TGI (SNB-75 CNS): > 100 µM | TGI (NCI/ADR-RES ovarian): > 100 µM | TGI (HT29 colon): > 100 µM | TGI (HOP-92 NSCLC): > 100 µM | TGI (MCF7 breast): > 100 µM | TGI (CAKI-1 renal): > 100 µM | TGI (SR leukemia): > 100 µM | TGI (U251 CNS): > 100 µM | TGI (HCT-116 colon): > 100 µM | TGI (M14 melanoma): > 100 µM | TGI (SK-MEL-5 melanoma): > 100 µM | TGI (HCT-15 colon): > 100 µM | TGI (SNB-19 CNS): > 100 µM | TGI (786-0 renal): > 100 µM | TGI (MDA-N): > 100 µM | TGI (CCRF-CEM leukemia): > 100 µM | TGI (MALME-3M melanoma): > 100 µM | TGI (A498 renal): > 100 µM | TGI (T-47D breast): > 100 µM | TGI (PC-3 prostate): > 100 µM | TGI (SK-OV-3 ovarian): > 100 µM | TGI (SF-539 CNS): > 100 µM | TGI (RPMI-8226 leukemia): > 100 µM | TGI (SK-MEL-28 melanoma): > 100 µM | TGI (BT-549 breast): > 100 µM | TGI (NCI-H522 lung): > 100 µM | TGI (NCI-H23 lung): > 100 µM | TGI (MDA-MB-435): > 100 µM | TGI (ACHN renal): > 100 µM | TGI (KM12 colon): > 100 µM | TGI (HCC-2998 colon): > 100 µM | TGI (OVCAR-3 ovarian): > 100 µM | TGI (SW-620 colon): > 100 µM | TGI (COLO 205 colon): > 100 µM | TGI (HL-60(TB) leukemia): > 100 µM | TGI (UACC-62 melanoma): > 100 µM | TGI (EKVX NSCLC): > 100 µM | TGI (IGROV1 ovarian): > 100 µM | TGI (SN12C renal): > 100 µM | TGI (LOX IMVI melanoma): > 100 µM | TGI (OVCAR-5 ovarian): > 100 µM | TGI (UO-31 renal): > 100 µM | TGI (SF-268 CNS): > 100 µM | TGI (MOLT-4 leukemia): > 100 µM | TGI (OVCAR-4 ovarian): > 100 µM | TGI (DU-145 prostate): > 100 µM

CCOC(=O)CCC(NC(=O)OCc1ccccc1)C(=O)NC(CCC(=O)OCC)C(=O)NC(CCC(=O)OCC)C(=O)NC(CCC(=O)OCC)C(=O)NC(CCC(=O)OCC)C(=O)NC(Cc1ccc([N+](=O)[O-])cc1)C(=O)NC(CCC(=O)OCC)C(=O)NC(CCC(=O)OCC)C(=O)NC(CCC(=O)OCC)C(=O)NC(CCC(=O)OCC)C(=O)NC(CCC(=O)OCC)C(=O)OCC (stereo not given) (Cbz-E(OEt)E(OEt)E(OEt)E(OEt)E(OEt)[Phe(4-NO2)]E(OEt)E(OEt)E(OEt)E(OEt)E(OEt)-OEt; configuration not given here)
TGI (NCI-H460 lung): > 50 µM | TGI (A549 NSCLC): > 50 µM | TGI (MDA-MB-231 breast): > 5 µM | TGI (TK-10 renal): > 50 µM | TGI (RXF 393 renal): > 50 µM | TGI (HS 578T breast): > 50 µM | TGI (SK-MEL-2 melanoma): > 50 µM | TGI (HOP-62 NSCLC): > 50 µM | TGI (K-562 leukemia): > 50 µM | TGI (SNB-75 CNS): > 50 µM | TGI (NCI/ADR-RES ovarian): > 50 µM | TGI (HT29 colon): > 50 µM | TGI (MCF7 breast): > 50 µM | TGI (SR leukemia): > 50 µM | TGI (U251 CNS): > 50 µM | TGI (M14 melanoma): > 50 µM | TGI (SK-MEL-5 melanoma): > 50 µM | TGI (HCT-15 colon): > 50 µM | TGI (SNB-19 CNS): > 50 µM | TGI (NCI-H226 lung): > 50 µM | TGI (786-0 renal): > 50 µM | TGI (MDA-N): > 50 µM | TGI (CCRF-CEM leukemia): > 50 µM | TGI (MALME-3M melanoma): > 50 µM | TGI (A498 renal): > 50 µM | TGI (T-47D breast): > 50 µM | TGI (PC-3 prostate): > 50 µM | TGI (SK-OV-3 ovarian): > 50 µM | TGI (SF-539 CNS): > 50 µM | TGI (RPMI-8226 leukemia): > 50 µM | TGI (SK-MEL-28 melanoma): > 50 µM | TGI (BT-549 breast): > 50 µM | TGI (NCI-H522 lung): > 50 µM | TGI (NCI-H23 lung): > 50 µM | TGI (MDA-MB-435): > 50 µM | TGI (ACHN renal): > 50 µM | TGI (KM12 colon): > 50 µM | TGI (HCC-2998 colon): > 50 µM | TGI (OVCAR-3 ovarian): > 50 µM | TGI (SW-620 colon): > 50 µM | TGI (COLO 205 colon): > 50 µM | TGI (HL-60(TB) leukemia): > 50 µM | TGI (UACC-62 melanoma): > 50 µM | TGI (EKVX NSCLC): > 50 µM | TGI (IGROV1 ovarian): > 50 µM | TGI (SN12C renal): > 50 µM | TGI (LOX IMVI melanoma): > 50 µM | TGI (OVCAR-5 ovarian): > 50 µM | TGI (UO-31 renal): > 50 µM | TGI (SF-268 CNS): > 50 µM | TGI (MOLT-4 leukemia): > 50 µM | TGI (OVCAR-4 ovarian): > 50 µM | TGI (DU-145 prostate): > 50 µM
